From patent US4973675A, “Hybrid nitrosoureidoanthracyclines having antitumor activity” (University of Tennessee Research Center, priority 1989, dated 1990)
Read-outs that look alike come from different tables or passages of the source.

How the values were obtained:
[1] = test system: human CEM leukemic lymphocytes; assay: Growth inhibition of human CEM leukemic lymphocyte suspension cultures, 48 h continuous drug exposure (ID50); format: cell-based; conditions: Homo sapiens, Lymphocyte
Description: (§1) Culture and bioassay conditions were as described in Cancer Chemotherapy Pharmacology 20:277 (1987) "Comparative Effects of Adriamycin and DNA-nonbinding Analogues on DNA, RNA, and Protein Synthesis in Vitro", Israel et al., except that cell counts were determined by hemocytometer rather than by automated cell counting.

[2] = test system: plasmid PC15 supercoiled DNA; assay: DNA unwinding assay (interference with DNA topoisomerase I-mediated unwinding; drug-DNA intercalation); format: biochemical; conditions: for interference with topoisomerase I-mediated conversion of supercoiled DNA / intercalation: 4 concentrations, 125-fold range
Text: DNA unwinding assays were used to measure the ability of a test drug to interfere with DNA topoisomerase I-mediated unwinding of plasmid PC15 supercoiled DNA. DNA topoisomerase I controls the topology of double-stranded DNA and is itself not inhibited by DNA intercalating agents. Rather, intercalating agents cause distortion of the torsional angle between adjacent DNA strand components and thereby interfere with the ability of topoisomerase I to convert supercoiled DNA into relaxed forms. Accordingly, this assay is taken as the definitive test of drug-DNA intercalation.
Drugs were tested at 4 concentrations over a 125-fold concentration range. […] These compounds are 2-chloroethylurea derivatives of daunorubicin and adriamycin, respectively (i.e. not nitrosoureas, but chemical intermediates from which the nitrosoureas were derived).

calf thymus DNA = assay: Interstrand cross-link formation in isolated calf thymus DNA, ethidium bromide fluorescence assay; format: biochemical; conditions: 10 mM, 4 hours at 50° C.
Description: To further assess the alkylation potential of AD 312, the ability of this agent to form interstrand cross-links in isolated calf thymus DNA was examined using an ethidium bromide fluorescence assay. […] In one set of experiments, DNA was exposed briefly to AD 312 (30 minutes at 50° C.) before being reisolated by precipitation with ethanol. […] Such continuing reaction reflects the presence in the DNA of long-lived precursors of crosslinks similar to what has been found for the classical antitumor chloroethylnitrosoureas. […] It appears, therefore, that AD 312 induces DNA interstrand crosslinks via an initial adduct at O^6 -guanine.

DNA topoisomerase II = assay: Drug-stimulated topoisomerase II-mediated DNA cleavage assay (end-labeled PMC41 DNA); format: biochemical; conditions: 625-fold concentration range
Text: FIGS. 5A and 5B are a photographic reproduction of the results of drug-stimulated topoisomerase II-mediated DNA cleavage assays performed on various compounds, including compounds of the present invention.
DNA intercalation is a necessary but not a sufficient requirement for DNA topoisomerase II-mediated DNA cleavage. Accordingly, determination of drug-induced enzyme inhibition requires direct assay with isolated topoisomerase II. These assays involve determination of drug-enhanced topoisomerase II-mediated cleavage of PMC41 DNA appropriately end-labeled with [α-^32 P]dATP. As better seen in FIG. 5B, lane B, purified topoisomerase II, under the assay conditions, causes fragmentation of the DNA (background cleavage), as indicated by the radioautographic appearance of bands of cleaved DNA having differing mass values.

[3] = test system: murine L1210 leukemia cells; assay: Clonogenic assay with cultured murine L1210 leukemia cells, 1 h drug exposure (LD90); format: cell-based; conditions: Mus musculus, L1210; 1 hr drug exposure; read-out: L1210 LD90 (dose killing 90% of clonogens)
Description: as §1
+Dose killing 90% of clonogens, 1hr. drug exposure.

[4] = Solubility in water or saline; format: physicochemical
Description: Accordingly, the compounds are formulated for administration by dissolving the compound in a pharmaceutically acceptable non-toxic carrier which contains a surfactant. The present inventors employ a formulation of 10% Cremaphor EL (a polyhydroxylated castor oil derivative) available from BASF Chemicals, 10% ethanol and 80% aqueous media (sterile water or saline solution). That quantity of the compound desired for establishing an effective dose is dissolved in a 1:1 mixture of Cremaphor EL and ethanol. Thereafter, sufficient aqueous medium is added with stirring to develop a final formulation containing 80% aqueous medium. This formulation is administered parenterally.

[5] = CEM, 48 hr continuous drug exposure (Table 2), read-out: ID50 (the source's name)

| SMILES | IC50 [1, 5] [µM] | other results |
| --- | --- | --- |
| CCN(N=O)C(=O)N[C@H]1C[C@H](O[C@H]2C[C@](O)(C(C)=O)Cc3c(O)c4c(c(O)c32)C(=O)c2c(OC)cccc2C4=O)O[C@@H](C)[C@H]1O [AD 311] |  | IC50 ([1]; 48 h, read-out: ID50): 1.5 µM |
| CCCN(N=O)C(=O)N[C@H]1C[C@H](O[C@H]2C[C@](O)(C(C)=O)Cc3c(O)c4c(c(O)c32)C(=O)c2c(OC)cccc2C4=O)O[C@@H](C)[C@H]1O [AD 313] | > 1 |  |
| CCNC(=O)N[C@H]1C[C@H](O[C@H]2C[C@](O)(C(C)=O)Cc3c(O)c4c(c(O)c32)C(=O)c2c(OC)cccc2C4=O)O[C@@H](C)[C@H]1O [AD 306] | > 1 |  |
| COc1cccc2c1C(=O)c1c(O)c3c(c(O)c1C2=O)C[C@@](O)(C(C)=O)C[C@@H]3O[C@H]1C[C@H](NC(=O)NCCCl)[C@H](O)[C@H](C)O1 [AD 307, 2-chloroethylureidodaunorubicin] | 0.3 | interference with topoisomerase I-mediated conversion of supercoiled DNA / intercalation [2]: reasonably strong intercalators; interstrand crosslink formation (calf thymus DNA): appeared to produce no such effect |
| CCCNC(=O)N[C@H]1C[C@H](O[C@H]2C[C@](O)(C(=O)CO)Cc3c(O)c4c(c(O)c32)C(=O)c2c(OC)cccc2C4=O)O[C@@H](C)[C@H]1O [AD 348] | 0.77 |  |
| COc1cccc2c1C(=O)c1c(O)c3c(c(O)c1C2=O)C[C@@](O)(C(C)=O)C[C@@H]3O[C@H]1C[C@H](NC(=O)Nc2ccc(F)cc2)[C@H](O)[C@H](C)O1 [AD 332] |  | IC50 ([1]; 48 h, read-out: ID50): > 1 µM |
| CCCN(N=O)C(=O)N[C@H]1C[C@H](O[C@H]2C[C@](O)(C(=O)CO)Cc3c(O)c4c(c(O)c32)C(=O)c2c(OC)cccc2C4=O)O[C@@H](C)[C@H]1O [AD 349] | 0.43 |  |
| CCNC(=O)N[C@H]1C[C@H](O[C@H]2C[C@](O)(C(=O)CO)Cc3c(O)c4c(c(O)c32)C(=O)c2c(OC)cccc2C4=O)O[C@@H](C)[C@H]1O [AD 344] |  | IC50 ([1]; 48 h, read-out: ID50): 0.58 µM |
| COc1cccc2c1C(=O)c1c(O)c3c(c(O)c1C2=O)C[C@@](O)(C(=O)CO)C[C@@H]3O[C@H]1C[C@H](NC(=O)NCCCl)[C@@H](O)[C@H](C)O1 [AD 391, 2-chloroethylureidoepirubicin] | 0.08 | interference with topoisomerase I-mediated conversion of supercoiled DNA / intercalation [2]: strong intercalators; enhancement of topoisomerase II-mediated DNA cleavage (DNA topoisomerase II): do not enhance topoisomerase II-mediated cleavage |
| COc1ccc(NC(=O)N[C@H]2C[C@H](O[C@H]3C[C@](O)(C(=O)CO)Cc4c(O)c5c(c(O)c43)C(=O)c3c(OC)cccc3C5=O)O[C@@H](C)[C@H]2O)cc1 [AD 354] | 0.71 |  |
| CCOC(=O)NC(=S)N[C@H]1C[C@H](O[C@H]2C[C@](O)(C(=O)CO)Cc3c(O)c4c(c(O)c32)C(=O)c2c(OC)cccc2C4=O)O[C@@H](C)[C@H]1O [AD 360] | 0.36 |  |
| COc1cccc2c1C(=O)c1c(O)c3c(c(O)c1C2=O)C[C@@](O)(C(C)=O)C[C@@H]3O[C@H]1C[C@H](NC(=O)Nc2ccccc2)[C@H](O)[C@H](C)O1 [AD 309] | > 1 |  |
| COc1cccc2c1C(=O)c1c(O)c3c(c(O)c1C2=O)C[C@@](O)(C(=O)CO)C[C@@H]3O[C@H]1C[C@H](NC(=O)NCCCl)[C@H](O)[C@H](C)O1 [AD 346, 2-chloroethylureidoadriamycin] | 0.09 | interference with topoisomerase I-mediated conversion of supercoiled DNA / intercalation [2]: reasonably strong intercalators; enhancement of topoisomerase II-mediated DNA cleavage (DNA topoisomerase II): do not enhance topoisomerase II-mediated cleavage |
| CCOC(=O)NC(=S)N[C@H]1C[C@H](O[C@H]2C[C@](O)(C(C)=O)Cc3c(O)c4c(c(O)c32)C(=O)c2c(OC)cccc2C4=O)O[C@@H](C)[C@H]1O [AD 336] | 0.6 |  |
| CCCNC(=O)N[C@H]1C[C@H](O[C@H]2C[C@](O)(C(C)=O)Cc3c(O)c4c(c(O)c32)C(=O)c2c(OC)cccc2C4=O)O[C@@H](C)[C@H]1O [AD 308] | > 5 |  |
| COc1cccc2c1C(=O)c1c(O)c3c(c(O)c1C2=O)C[C@@](O)(C(=O)CO)C[C@@H]3O[C@H]1C[C@H](NC(=O)N(C)N=O)[C@H](O)[C@H](C)O1 [AD 343] |  | IC50 ([1]; 48 h, read-out: ID50): 0.48 µM |
| COc1cccc2c1C(=O)c1c(O)c3c(c(O)c1C2=O)C[C@@](O)(C(=O)CO)C[C@@H]3O[C@H]1C[C@H](NC(=O)Nc2ccc(F)cc2)[C@H](O)[C@H](C)O1 [AD 356] | 1.14 |  |
| COc1cccc2c1C(=O)c1c(O)c3c(c(O)c1C2=O)C[C@@](O)(C(C)=O)C[C@@H]3O[C@H]1C[C@@H]2NC(=O)O[C@@H]2[C@H](C)O1 [AD 362] | 0.88 |  |
| COc1cccc2c1C(=O)c1c(O)c3c(c(O)c1C2=O)C[C@@](O)(C(C)=O)C[C@@H]3O[C@H]1C[C@H](NC(=O)NC(C)C)[C@H](O)[C@H](C)O1 [AD 328] | > 1 |  |
| COc1cccc2c1C(=O)c1c(O)c3c(c(O)c1C2=O)C[C@@](O)(C(=O)CO)C[C@@H]3O[C@H]1C[C@@H]2NC(=O)O[C@@H]2[C@H](C)O1 [AD 363] | 0.71 |  |
| CNC(=O)N[C@H]1C[C@H](O[C@H]2C[C@](O)(C(=O)CO)Cc3c(O)c4c(c(O)c32)C(=O)c2c(OC)cccc2C4=O)O[C@@H](C)[C@H]1O [AD 342] | 2 |  |
| COc1cccc2c1C(=O)c1c(O)c3c(c(O)c1C2=O)C[C@@](O)(C(=O)CO)C[C@@H]3O[C@H]1C[C@H](N)[C@@H](O)[C@H](C)O1 [Epirubicin, epirubicin, reference compound] |  | IC50 ([1]; suspension culture, 48 hr continuous drug exposure (Table 3), read-out: CEM, ID50 (50% growth-inhibitory concentration)): 0.03 µM; IC90 [3]: 0.43 µM; relative strength of drug-DNA intercalation (arbitrary scale) ([2]; 0 = no intercalation, 9 = very strong intercalation): 7 |
| CNC(=O)N[C@H]1C[C@H](O[C@H]2C[C@](O)(C(C)=O)Cc3c(O)c4c(c(O)c32)C(=O)c2c(OC)cccc2C4=O)O[C@@H](C)[C@H]1O [AD 305] | 2.3 |  |
| COc1cccc2c1C(=O)c1c(O)c3c(c(O)c1C2=O)C[C@@](O)(C(C)=O)C[C@@H]3O[C@H]1C[C@H](NC(=O)Nc2cccc(C(F)(F)F)c2)[C@H](O)[C@H](C)O1 [AD 334] | 0.83 |  |
| COc1ccc(NC(=O)N[C@H]2C[C@H](O[C@H]3C[C@](O)(C(C)=O)Cc4c(O)c5c(c(O)c43)C(=O)c3c(OC)cccc3C5=O)O[C@@H](C)[C@H]2O)cc1 [AD 330] | > 1 |  |
| CCN(N=O)C(=O)N[C@H]1C[C@H](O[C@H]2C[C@](O)(C(=O)CO)Cc3c(O)c4c(c(O)c32)C(=O)c2c(OC)cccc2C4=O)O[C@@H](C)[C@H]1O [AD 345] |  | IC50 ([1]; 48 h, read-out: ID50): 0.61 µM |
| COc1cccc2c1C(=O)c1c(O)c3c(c(O)c1C2=O)C[C@@](O)(C(=O)CO)C[C@@H]3O[C@H]1C[C@H](NC(=O)NC(C)C)[C@H](O)[C@H](C)O1 [AD 350] | 0.72 |  |
| COc1cccc2c1C(=O)c1c(O)c3c(c(O)c1C2=O)C[C@@](O)(C(C)=O)C[C@@H]3O[C@H]1C[C@H](NC(=O)N(C)N=O)[C@H](O)[C@H](C)O1 [AD 310] | 1.4 |  |
| COc1cccc2c1C(=O)c1c(O)c3c(c(O)c1C2=O)C[C@@](O)(C(=O)CO)C[C@@H]3O[C@H]1C[C@H](NC(=O)Nc2ccccc2)[C@H](O)[C@H](C)O1 [AD 352] | 0.4 |  |
| COc1cccc2c1C(=O)c1c(O)c3c(c(O)c1C2=O)C[C@@](O)(C(=O)CO)C[C@@H]3O[C@H]1C[C@H](NC(=O)N(CCCl)N=O)[C@H](O)[C@H](C)O1 [AD 337] |  | solubility ([4]; water or saline solution): essentially insoluble in water or saline solution; solubility ([4]; water, of the order of, read-out: solubility in water): < 0.025 mg/mL |
